# Key:
# [1] = test system: rat model of an acute unilateral labyrinthectomy; details: Zwergal 2016, Gunther 2015; cited from earlier work
# [2] = test system: patients with restless leg syndrome (RLS); assay: Symptom relief of RLS by pre-treatment (patient history); format: in vivo, human
# Description: (§1) The patient in this case study was a person showing proximal weakness of the lower limb. […] Upon consultation, they reported no sensory symptoms but complained of a restless leg syndrome at night and during resting periods of the day, occurring over the course of the last eight years. […] Serum creatine kinase activity was mildly elevated at 300 IU/L. Iron measurements and all additional lab investigations were normal. The patient was evaluated using the RLS-DI and the patient's IRLS was 32, and thus a moderate to severe RLS was diagnosed. The patient was started on therapy with acetyl-DL-leucine at a dose of 3 g per day for the first week, followed by a dose of 5 g per day for the second week onwards. Within 14 days on acetyl-DL-leucine, the IRLS dropped to 22, and after another 5 weeks, the IRLS declined to 7. Continuation of treatment over more than 28 weeks stabilized the IRLS score at 8.
# (§2) The patient in this case study was a person showing mild proximal weakness of the upper and lower limbs slowly progressive. The patient had been diagnosed (genetically confirmed) with McArdle myopathy about 16 years ago. Upon consultation, they reported no sensory symptoms but complained about a severe fatigue and reduced stamina. The patient further reported a restless leg syndrome at night and during resting periods of the day, occurring over the course of the last 12 years. […] Serum creatine kinase activity was mildly elevated at 200 IU/L; however, the patient had 5 episodes of rhabdomyolysis during the past 20 years. Repeated iron measurements and all additional lab investigations were normal. The patient was evaluated using the RLS-DI and the patient's IRLS was 34, and thus a severe RLS was diagnosed. The patient was started on therapy with acetyl-DL-leucine at a dose of 3 g per day for the first week, followed by a dose of 5 g per day for the second week onwards. Within 21 days on acetyl-DL-leucine, the IRLS dropped to 20, and after another 10 weeks, the IRLS declined to 10. Continuation of treatment over more than 30 weeks stabilized the IRLS score at 10. In addition, the patient's fatigue declined (Fatigue Severit Scale: 9 (minimum) to 63 (maximum)) from 53 to 28.
# The patient in this case study was a person showing symptoms of RLS and with RLS of unknown etiology. Upon consultation, they reported no sensory symptoms but complained of a restless leg syndrome at night and during resting periods of the day, occurring over the course of the at least 15 years. […] Iron measurements and all additional lab investigations were normal. The patient was evaluated using the RLS-DI and the patient's IRLS was 32, and thus a moderate to severe RLS was diagnosed. The patient was started on therapy with acetyl-DL-leucine at a dose of 3 g per day for the first week, followed by a dose of 5 g per day for the second week onwards. Within 14 days on acetyl-DL-leucine, the IRLS dropped to 8, and after another 2 weeks, the IRLS declined to 6. Continuation of treatment over more than 4 weeks stabilized the IRLS score at 6.
# [3] = test system: patients with restless leg syndrome (RLS); assay: International Restless Legs Syndrome Rating Scale score (IRLS) in patient case studies; format: in vivo, human; set-up: key: IRLS score, 0 (no symptoms) to 40; >30 very severe
# From the text: RLS severity varies and can be measured using one or more of several scales. A widely reported rating scale known as the International Restless Legs Syndrome Study Group Rating Scale (“IRLS”) was developed by the International Restless Legs Syndrome Study Group (“IRLSSG”) (Walters et al., Validation of the 15 International Restless Legs Syndrome Study Group rating scale for restless legs syndrome. Sleep medicine. 2003 Apr 01; 4(2)1 21-32). The IRLS is a 10-item scale with scores ranging from 0 (no symptoms) to 40. Scores>30 are considered very severe, severe (Score 21-30), moderate (scores 11-20) and […], mild. Use of the scale is common for clinical assessment, research and therapeutic trials with RLS.
# Serum creatine kinase activity was only mildly elevated at up to 400 IU/L. The patient was evaluated using the RLS diagnostic index (RLS-DI) (see Walters et al., Sleep Med 2003; 4(2):121-132;). The patient's International Restless Legs Syndrome Rating Scale score (IRLS) was 36, and thus a severe RLS was diagnosed. The patient was started on therapy with acetyl-DL-leucine at a dose of 3 g per day for the first week, followed by a dose of 5 g per day for the second week onwards. Within 14 days on acetyl-DL-leucine, the IRLS dropped to 26, and after another 5 weeks, the IRLS declined to 9. […] Re-introduction of the treatment re-declined the score to 8 after 2 weeks. Continuation of treatment over more than 22 weeks stabilized the IRLS score at 8.
# as §1, §2
# The patient in this case study was a person showing symptoms of RLS and with RLS of unknown etiology. […]
# [4] = test system: patients with cerebellar ataxia / Niemann-Pick Type C; details: cited from earlier work
# [5] = test system: patient with RLS and McArdle myopathy; assay: Fatigue Severity Scale in patient case study; format: in vivo, human; details: Patient 3; scale 9 (minimum) to 63 (maximum); declined from 53
# From the text: as §2
# [6] = Patient 2, before acetyl-DL-leucine
# [7] = Patient 3, before acetyl-DL-leucine
# [8] = Patient 4, before acetyl-DL-leucine
structure (smiles),measurement,setting,value
CC(=O)N[C@@H](CC(C)C)C(=O)O [N-acetyl-L-leucine],postural compensation,[1],significant effect
CC(C)C[C@H](CN)CC(=O)O [pregabaline],RLS symptom relief by pre-treatment,[2]; [6],without sustained symptom relief
same,RLS symptom relief by pre-treatment,[2]; [7],without sustained symptom relief
same,RLS symptom relief by pre-treatment,[2]; [8],without sustained relief
N[C@@H](Cc1ccc(O)c(O)c1)C(=O)O [L-dopa],RLS symptom relief by pre-treatment,[2]; [6],without sustained symptom relief
same,RLS symptom relief by pre-treatment,[2]; [7],without sustained symptom relief
same,RLS symptom relief by pre-treatment,[2]; [8],without sustained relief
CC(=O)NC(CC(C)C)C(=O)O (racemic) [acetyl-DL-leucine],IRLS,"[3]; Patient 1, baseline 36, after another 5 weeks on 5 g per day",9
same,IRLS,"[3]; Patient 1, baseline IRLS 36, 3 g per day first week then 5 g per day, within 14 days",26
same,IRLS,"[3]; Patient 1, after interruption of 4 weeks of the treatment after week 12",28
same,IRLS,"[3]; Patient 1, continuation of treatment over more than 22 weeks",8
same,IRLS,"[3]; Patient 1, re-introduction of the treatment, after 2 weeks",8
same,IRLS,"[3]; Patient 2, baseline 32, after another 5 weeks",7
same,IRLS,"[3]; Patient 2, baseline IRLS 32, 3 g per day first week then 5 g per day, within 14 days",22
same,IRLS,"[3]; Patient 2, continuation of treatment over more than 28 weeks",8
same,IRLS,"[3]; Patient 3, baseline 34, after another 10 weeks",10
same,IRLS,"[3]; Patient 3, baseline IRLS 34, 3 g per day first week then 5 g per day, within 21 days",20
same,IRLS,"[3]; Patient 3, continuation of treatment over more than 30 weeks",10
same,IRLS,"[3]; Patient 4, baseline 32, after another 2 weeks",6
same,IRLS,"[3]; Patient 4, baseline IRLS 32, 3 g per day first week then 5 g per day, within 14 days",8
same,IRLS,"[3]; Patient 4, continuation of treatment over more than 4 weeks",6
same,brain metabolism (PET),"[4]; PET study in patients with ataxia, Becker-Bense et al. (2015)",increased metabolism in the midbrain and lower brainstem in responders
same,cerebellar ataxia benefit,"[4]; another case series, Pelz et al. (2015)",did not find benefit
same,cerebellar ataxia symptoms,"[4]; case series with cerebellar patients, Strupp et al. (2013)",symptomatic improvement of cerebellar ataxia
same,ataxia symptoms,"[4]; one-month study, 12 patients with Niemann-Pick Type C, Bremova et al. (2015)",symptomatic improvement of ataxia was shown
same,temporal gait variability,"[4]; quantitative gait analysis, patients with cerebellar ataxia, Schniepp et al. (2015)",improved temporal gait variability
same,Fatigue Severit Scale,[5],28

# Source: US11660279B2, “Therapeutic agents for treating restless leg syndrome” (INTRABIO LTD, priority 2018, dated 2023)
